Patent US7371766B2, “Curcumin analogs with anti-tumor and anti-angiogenic properties” (Emory University, priority 1999, dated 2008)
Where two headings read alike, the source gives them in different places.

Key:
[1] = test system: HL-60 (TB); assay: cells; settings: Homo sapiens, HL-60, 48 h; for GI50: read-out: Median Growth Inhibitory Concentration (GI50); for CC50: read-out: Median Lethal Concentration (LC50)
[2] = test system: K-562; assay: cells; settings: Homo sapiens, K562, 48 h; for GI50: read-out: Median Growth Inhibitory Concentration (GI50); for CC50: read-out: Median Lethal Concentration (LC50)
[3] = test system: SR; assay: cells; settings: Homo sapiens, 48 h; for GI50: read-out: Median Growth Inhibitory Concentration (GI50); for CC50: read-out: Median Lethal Concentration (LC50)
[4] = test system: A549; assay: cells; settings: Homo sapiens, A549, 48 h; for GI50: read-out: Median Growth Inhibitory Concentration (GI50); for CC50: read-out: Median Lethal Concentration (LC50)
[5] = test system: EKVX; assay: cells; settings: Homo sapiens, 48 h; for GI50: read-out: Median Growth Inhibitory Concentration (GI50); for CC50: read-out: Median Lethal Concentration (LC50)
[6] = test system: NCI-H226; assay: cells; settings: Homo sapiens, NCI-H226, 48 h; for GI50: read-out: Median Growth Inhibitory Concentration (GI50); for CC50: read-out: Median Lethal Concentration (LC50)
[7] = test system: NCI-H460; assay: cells; settings: Homo sapiens, NCI-H460, 48 h; for GI50: read-out: Median Growth Inhibitory Concentration (GI50); for CC50: read-out: Median Lethal Concentration (LC50)
[8] = test system: NCI-H522; assay: cells; settings: Homo sapiens, NCI-H522, 48 h; for GI50: read-out: Median Growth Inhibitory Concentration (GI50); for CC50: read-out: Median Lethal Concentration (LC50)
[9] = test system: HCC-2998; assay: cells; settings: Homo sapiens, HCC 2998, 48 h; for GI50: read-out: Median Growth Inhibitory Concentration (GI50); for CC50: read-out: Median Lethal Concentration (LC50)
[10] = test system: HCT-116; assay: cells; settings: Homo sapiens, HCT-116, 48 h; for GI50: read-out: Median Growth Inhibitory Concentration (GI50); for CC50: read-out: Median Lethal Concentration (LC50)
[11] = test system: HCT-15; assay: cells; settings: Homo sapiens, HCT-15, 48 h; for GI50: read-out: Median Growth Inhibitory Concentration (GI50); for CC50: read-out: Median Lethal Concentration (LC50)
[12] = test system: HT29; assay: cells; settings: Homo sapiens, HT-29, 48 h; for GI50: read-out: Median Growth Inhibitory Concentration (GI50); for CC50: read-out: Median Lethal Concentration (LC50)
[13] = test system: SW-620; assay: cells; settings: Homo sapiens, SW-620, 48 h; for GI50: read-out: Median Growth Inhibitory Concentration (GI50); for CC50: read-out: Median Lethal Concentration (LC50)
[14] = test system: U251; assay: cells; settings: Homo sapiens, U-251, 48 h; for GI50: read-out: Median Growth Inhibitory Concentration (GI50); for CC50: read-out: Median Lethal Concentration (LC50)
[15] = test system: LOX IMVI; assay: cells; settings: Homo sapiens, 48 h; for GI50: read-out: Median Growth Inhibitory Concentration (GI50); for CC50: read-out: Median Lethal Concentration (LC50)
[16] = test system: MALME-3M; assay: cells; settings: Homo sapiens, 48 h; for GI50: read-out: Median Growth Inhibitory Concentration (GI50); for CC50: read-out: Median Lethal Concentration (LC50)
[17] = test system: SK-MEL-2; assay: cells; settings: Homo sapiens, SK-MEL-2, 48 h; for GI50: read-out: Median Growth Inhibitory Concentration (GI50); for CC50: read-out: Median Lethal Concentration (LC50)
[18] = test system: UACC-257; assay: cells; settings: Homo sapiens, UACC-257, 48 h; for GI50: read-out: Median Growth Inhibitory Concentration (GI50); for CC50: read-out: Median Lethal Concentration (LC50)
[19] = test system: UACC-62; assay: cells; settings: Homo sapiens, UACC-62, 48 h; for GI50: read-out: Median Growth Inhibitory Concentration (GI50); for CC50: read-out: Median Lethal Concentration (LC50)
[20] = test system: OVCAR-5; assay: cells; settings: Homo sapiens, OVCAR-5, 48 h; for GI50: read-out: Median Growth Inhibitory Concentration (GI50); for CC50: read-out: Median Lethal Concentration (LC50)
[21] = test system: ACHN; assay: cells; settings: Homo sapiens, 48 h; for GI50: read-out: Median Growth Inhibitory Concentration (GI50); for CC50: read-out: Median Lethal Concentration (LC50)
[22] = test system: CAKI-1; assay: cells; settings: Homo sapiens, CAKI-1, 48 h; for GI50: read-out: Median Growth Inhibitory Concentration (GI50); for CC50: read-out: Median Lethal Concentration (LC50)
[23] = test system: RXF 393; assay: cells; settings: Homo sapiens, RXF 393, 48 h; for GI50: read-out: Median Growth Inhibitory Concentration (GI50); for CC50: read-out: Median Lethal Concentration (LC50)
[24] = test system: SN12C; assay: cells; settings: Homo sapiens, 48 h; for GI50: read-out: Median Growth Inhibitory Concentration (GI50); for CC50: read-out: Median Lethal Concentration (LC50)
[25] = test system: MCF-7; assay: cells; settings: Homo sapiens, MCF7, 48 h; for GI50: read-out: Median Growth Inhibitory Concentration (GI50); for CC50: read-out: Median Lethal Concentration (LC50)
[26] = test system: NCI/ADR-RES; assay: cells; settings: Homo sapiens, 48 h; for GI50: read-out: Median Growth Inhibitory Concentration (GI50); for CC50: read-out: Median Lethal Concentration (LC50)
[27] = test system: HS 578T; assay: cells; settings: Homo sapiens, 48 h; for GI50: read-out: Median Growth Inhibitory Concentration (GI50); for CC50: read-out: Median Lethal Concentration (LC50)
[28] = test system: Sixty human tumor cell lines; assay: cells; settings: 48 h; for GI50: read-out: Median Growth Inhibitory Concentration (GI50), Mean; for CC50: read-out: Median Lethal Concentration (LC50), Mean
[29] = test system: Vascular Endothelial Growth Factor (VEGF) production by human melanoma cell line RPMI-7951; assay: VEGF ELISA, RPMI-7951; settings: for activity at 5 µM / activity at 20 µM: Homo sapiens, RPMI-7951, 72 h, read-out: VEGF; for VEGF ELISA / VEGF: RPMI-7951; for VEGF ELISA: DMSO control 3713
[30] = test system: RPMI-7951 human melanoma; assay: Neutral Red Assay, cell viability, RPMI-7951; settings: Homo sapiens
[31] = 5 μM, DMSO control 4197 (EF-25: 1045)
[32] = RPMI-7951, 72 h, read-out: Neutral Red Uptake, %
[33] = RPMI-7951, read-out: Cell Viability

O=C(C=Cc1ccc(F)cc1F)C=Cc1ccc(F)cc1F [EF9, 1,5-Bis(2,4-difluorophenyl)penta-1,4-dien-3-one]
GI50 [1]: 4.2 µM
CC50 [1]: > 100 µM
GI50 [2]: 3.5 µM
CC50 [2]: > 100 µM
GI50 [3]: 1.2 µM
CC50 [3]: 77.9 µM
GI50 [4]: 8.9 µM
CC50 [4]: 71 µM
GI50 [5]: 11.8 µM
CC50 [5]: 49.1 µM
GI50 [6]: 24.3 µM
CC50 [6]: > 100 µM
GI50 [7]: 12.7 µM
CC50 [7]: 60.9 µM
GI50 [8]: 13.4 µM
CC50 [8]: 57.1 µM
GI50 [9]: 3.3 µM
CC50 [9]: 32.2 µM
GI50 [10]: 1.9 µM
CC50 [10]: 7.7 µM
GI50 [11]: 4.9 µM
CC50 [11]: 64.7 µM
GI50 [12]: 4.1 µM
CC50 [12]: 41.9 µM
GI50 [13]: 3.2 µM
CC50 [13]: 62.6 µM
GI50 [14]: 2.1 µM
CC50 [14]: 12.9 µM
GI50 [15]: 3.4 µM
CC50 [15]: 67.6 µM
GI50 [16]: 17.8 µM
CC50 [16]: 73.4 µM
GI50 [17]: 14.5 µM
CC50 [17]: 58.9 µM
GI50 [18]: 16 µM
CC50 [18]: 62.1 µM
GI50 [19]: 13.9 µM
CC50 [19]: 52.8 µM
GI50 [20]: 20 µM
CC50 [20]: 63.3 µM
GI50 [21]: 16.5 µM
CC50 [21]: 54.8 µM
GI50 [22]: 15 µM
CC50 [22]: 93.4 µM
GI50 [23]: 2.3 µM
CC50 [23]: 17.9 µM
GI50 [24]: 17.1 µM
CC50 [24]: 62.3 µM
GI50 [25]: 3 µM
CC50 [25]: 42.2 µM
GI50 [26]: 30.7 µM
CC50 [26]: > 100 µM
GI50 [27]: 9.9 µM
CC50 [27]: > 100 µM
GI50 [28]: 7.2 µM
CC50 [28]: 52.5 µM
activity at 5 µM [29]: 46%
activity at 20 µM [29]: 14%
VEGF ELISA ([29]; 5 μM): 1868 pg/ml/well
VEGF [29, 31]: 1925 pg/mL
VEGF ELISA ([29]; 20 μM): 705 pg/ml/well
VEGF ([29]; 20 μM, DMSO control 4197): 595 pg/mL
viability at 5 µM [30, 32]: 88%
viability at 20 µM [30, 32]: 11%
viability at 5 µM [30, 33]: 92%
viability at 20 µM [30, 33]: 70%

CC1(/C=C/c2ccccc2O)C=Cc2ccccc2O1 (stereo not drawn) [EF7]
GI50 [1]: 17.7 µM
CC50 [1]: 76 µM
GI50 [2]: 14.9 µM
CC50 [2]: 70.7 µM
GI50 [3]: 15.2 µM
CC50 [3]: 76.8 µM
GI50 [4]: 14.9 µM
CC50 [4]: 53.3 µM
GI50 [5]: 17.3 µM
CC50 [5]: 56.6 µM
GI50 [6]: 18.7 µM
CC50 [6]: 78.8 µM
GI50 [7]: 17.6 µM
CC50 [7]: 66.8 µM
GI50 [8]: 16.2 µM
CC50 [8]: > 100 µM
GI50 [9]: 18.4 µM
CC50 [9]: 56.8 µM
GI50 [10]: 17.6 µM
CC50 [10]: 57.6 µM
GI50 [11]: 17.2 µM
CC50 [11]: 68.9 µM
GI50 [12]: 17.8 µM
CC50 [12]: 60.6 µM
GI50 [13]: 16.2 µM
CC50 [13]: 65.9 µM
GI50 [14]: 16.1 µM
CC50 [14]: 54.4 µM
GI50 [15]: 17.2 µM
CC50 [15]: 73.4 µM
GI50 [16]: 17.5 µM
CC50 [16]: 68.8 µM
GI50 [17]: 16.8 µM
CC50 [17]: 57 µM
GI50 [18]: 16.9 µM
CC50 [18]: 55.2 µM
GI50 [19]: 12.2 µM
CC50 [19]: 49.6 µM
GI50 [20]: 16.7 µM
CC50 [20]: 58.4 µM
GI50 [21]: 15.7 µM
CC50 [21]: 54 µM
GI50 [22]: 14.3 µM
CC50 [22]: 52.3 µM
GI50 [23]: 11 µM
CC50 [23]: 49.2 µM
GI50 [24]: 15.2 µM
CC50 [24]: 54.4 µM
GI50 [25]: 18 µM
CC50 [25]: 65.9 µM
GI50 [26]: 19.3 µM
CC50 [26]: > 100 µM
GI50 [27]: 22.4 µM
CC50 [27]: > 100 µM
GI50 [28]: 15.8 µM
CC50 [28]: 61.7 µM
activity at 20 µM [29]: 27%
viability at 20 µM [30, 33]: 78%

COc1cc(/C=C/C(=O)CC(=O)/C=C/c2ccc(O)c(OC)c2)ccc1O [Curcumin]
GI50 [1]: 7.9 µM
CC50 [1]: < 100 µM
GI50 [2]: 3.2 µM
CC50 [2]: < 100 µM
GI50 [3]: 3.2 µM
CC50 [3]: 79.4 µM
GI50 [4]: 12.6 µM
CC50 [4]: 79.4 µM
GI50 [5]: 15.8 µM
CC50 [5]: 79.4 µM
GI50 [6]: 20 µM
CC50 [6]: < 100 µM
GI50 [7]: 7.9 µM
CC50 [7]: 63.1 µM
GI50 [8]: 5 µM
CC50 [8]: 79.4 µM
GI50 [9]: 3.2 µM
CC50 [9]: 31.6 µM
GI50 [10]: 3.2 µM
CC50 [10]: 50.1 µM
GI50 [11]: 4 µM
CC50 [11]: 79.4 µM
GI50 [12]: 5 µM
CC50 [12]: < 100 µM
GI50 [13]: 4 µM
CC50 [13]: 79.4 µM
GI50 [14]: 5 µM
CC50 [14]: 50.1 µM
GI50 [15]: 2.5 µM
GI50 [16]: 12.6 µM
CC50 [16]: 50.1 µM
GI50 [17]: 15.8 µM
CC50 [17]: 79.4 µM
GI50 [18]: 12.6 µM
CC50 [18]: 50.1 µM
GI50 [19]: 6.3 µM
CC50 [19]: 50.1 µM
GI50 [20]: 15.8 µM
CC50 [20]: 79.4 µM
GI50 [21]: 12.6 µM
CC50 [21]: 63.1 µM
GI50 [22]: 12.6 µM
CC50 [22]: 50.1 µM
GI50 [23]: 3.2 µM
CC50 [23]: 50.1 µM
GI50 [24]: 7.9 µM
CC50 [24]: 63.1 µM
GI50 [25]: 3.2 µM
CC50 [25]: < 100 µM
GI50 [26]: 7.9 µM
CC50 [26]: < 100 µM
GI50 [27]: 10 µM
CC50 [27]: < 100 µM
GI50 [28]: 6.7 µM
CC50 [28]: 66 µM
activity at 5 µM [29]: 98%
activity at 20 µM [29]: 5%
VEGF ELISA ([29]; 5 μM): 3989 pg/ml/well
VEGF [29, 31]: 4111 pg/mL
VEGF ELISA ([29]; 20 μM): 714 pg/ml/well
VEGF ([29]; 20 μM, DMSO control 4197): 221 pg/mL
viability at 5 µM [30, 32]: 100%
viability at 20 µM [30, 32]: 14%
viability at 5 µM [30, 33]: 105%
viability at 20 µM [30, 33]: 47%
